Results on two molecules are retold here after paper PMC9231284, “Hesperidin Bioavailability Is Increased by the Presence of 2S-Diastereoisomer and Micronization—A Randomized, Crossover and Double-Blind Clinical Trial” (Nutrients, 2022).

Series [1] can be described thus: First phase: relative urinary hesperidin excretion in 24 h urine after 500 mL orange juice with 345 mg hesperidin. It counts as in vivo, human. To be noted: for Relative urinary hesperidin excretion, low excretors: N=3, mean ± SD. The procedure: The study consisted of two phases. In the first phase, 30 volunteers consumed 500 mL of orange juice (OJ) with 345 mg of hesperidin [9], and the levels of hesperidin excreted in urine were determined. The OJ used in the first phase of the study was the hesperidin OJ used in previous studies conducted by our group. The objective of this first phase of the study was to select volunteers with intermediate hesperidin metabolite levels excreted in urine to reduce the variability in the results in the second phase of the study.
For the first phase of the study—after at least 8 h of fasting—the participants’ urine was collected before the intake of 500 mL of OJ (basal urine) and after the intake of the OJ for 24 h, accumulated in a single volume urine (Figure 1). Urine samples were homogenized and centrifuged at 1900 g for 10 min at 4 °C, and the supernatant was collected and subdivided into aliquots which were stored at −80 °C until analysis.
Relative urinary hesperidin excretion values (% of hesperidin ingested) obtained in the first phase of the study were used to select the participants for the second phase of the study. It was calculated by the ratio between the sum of hesperidin metabolites and the amount of hesperidin consumed by the participants (345 mg). With these values, 18 volunteers with intermediate relative urinary hesperidin excretion values were selected for the second phase.
To obtain the main and secondary outcomes, the urinary levels of hesperidin metabolites and catabolites at baseline—before consuming the hesperidin supplement—and up to 24 h after consuming the hesperidin supplement in four urine fractions (0–3 h; 3–6 h; 6–8 h; 8–24 h) were determined. In addition, the serum levels of hesperidin metabolites and catabolites at baseline and at 2 h, 3 h, 4 h, 5 h, 6 h, 7 h, 8 h and 24 h after consuming the hesperidin supplement were quantified. To obtain the relative urinary hesperidin excretion in the first phase of the study, the urinary levels of hesperidin metabolites before consuming the OJ and in the 24 h urine after consuming the hesperidin supplement were determined.
Hesperetin and related metabolites were determined in urine and serum samples by liquid chromatography coupled to triple quadrupole mass spectrometry (LC-QqQ) using a UHPLC 1290 Infinity II Series coupled to a QqQ/MS 6490 Series (Agilent Technologies, Palo Alto, CA, USA) and an ACQUITY UPLC BEH C18 (100 × 2.1 mm; 1.8 µm) column (Waters, Milford, MA, USA). Mobile phase A was 100% water with 0.5% acetic acid and 10 mM ammonium acetate, and mobile phase B was 100% methanol. The column temperature was set at 45 °C and the injection volume was 5 µL. The triple quadrupole operated in negative electrospray ionization mode (ESI-). The source conditions were set at 25 psi for the nebulizer gas, 240 °C for the gas temperature, 17 L/min for the gas flow, 250 °C for the sheath gas temperature, 12 L/min for the sheath gas flow, 3500 V for the capillary voltage and 0 V for the nozzle voltage. The standards used for quantification purposes were: Hesperetin and Hesperidin (Extrasynthese, Genay, France); Hesperetin 7-O-beta-D-glucuronide, Hesperetin 3-O-beta-D-glucuronide and Hesperetin 7,3′-di-O-beta-D-glucuronide (Toronto Research Chemicals; North York, ON, Canada); Hesperitin 7-O-sulfate (Santa Cruz Biotechnology, Dallas, TX, USA). Hesperitin-d3 and Diosmetin 7-O-β-D-Glucuronide-d3 (Toronto Research Chemicals; North York, ON, Canada) were used as internal standards. […]

For series [2] the following is noted: cited from earlier work.
Details of series [3]: method as in PMID 28747329, PMID 26861391, PMID 30669635. The following applies: humans, oral; cited from earlier work.
On the set-up of series [4]: method as in PMID 18058792. To be noted: rats, intravenous administration of racemic hesperetin; cited from earlier work.

As for `COc1ccc([C@@H]2CC(=O)c3c(O)cc(O[C@@H]4O[C@H](CO[C@@H]5O[C@@H](C)[C@H](O)[C@@H](O)[C@H]5O)[C@@H](O)[C@H](O)[C@H]4O)cc3O2)cc1O` [hesperidin, hesperetin-7-O-rutinoside], the “Relative urinary hesperidin excretion, low excretors” value in series [1] is listed as 0.74 ± 0.11%; in series [1] (listed as Hesperidin), 0.743 ± 0.112%. Also, the “Relative urinary hesperidin excretion, high excretors” value in series [1] (N=4, mean ± SD) turned out to be 6.06 ± 1.46%. Further, the “Relative urinary hesperidin excretion, intermediate excretors” value in series [1] (N=21, mean ± SD) is reported as 2.31 ± 1.01%. Also, the “Mean relative urinary hesperidin excretion determined as hesperetin or hesperetin conjugates in urine” value in series [1] (all participants N=28, mean ± SD) is reported as 2.67 ± 1.79%. Also, the Solubility result in series [2] was “low”. Besides, the Water solubility entry in series [2] was “poor”. Further, the “Share of ingested hesperidin that reaches the large intestine” value in series [3] was 70%.

Turning to `COc1ccc([C@H]2CC(=O)c3c(O)cc(O)cc3O2)cc1O` [R-diastereoisomer, hesperetin], in series [4], the “AUC of R-diastereoisomer compared to S-diastereoisomer” value was 3.2 fold.
